Measured values taken from article PMC12385147, “Discovery of Novel 2-Substituted Aniline Pyrimidine Based Derivatives as Potent Mer/c-Met Dual Inhibitors with Improvement Bioavailability” (Biomolecules, 2025).

Columns and labels:
c-Met kinase = molecular target: T1, c-Met kinase (Homo sapiens, UniProt P08581); experiment: c-Met kinase inhibition assay (TK-Sub-Biotin / cryptate detection); type: biochemical; conditions: means from three independent experiments
T1 construct: purchased Invitrogen (Shanghai, China)
T1 sequence (P08581 25-1390): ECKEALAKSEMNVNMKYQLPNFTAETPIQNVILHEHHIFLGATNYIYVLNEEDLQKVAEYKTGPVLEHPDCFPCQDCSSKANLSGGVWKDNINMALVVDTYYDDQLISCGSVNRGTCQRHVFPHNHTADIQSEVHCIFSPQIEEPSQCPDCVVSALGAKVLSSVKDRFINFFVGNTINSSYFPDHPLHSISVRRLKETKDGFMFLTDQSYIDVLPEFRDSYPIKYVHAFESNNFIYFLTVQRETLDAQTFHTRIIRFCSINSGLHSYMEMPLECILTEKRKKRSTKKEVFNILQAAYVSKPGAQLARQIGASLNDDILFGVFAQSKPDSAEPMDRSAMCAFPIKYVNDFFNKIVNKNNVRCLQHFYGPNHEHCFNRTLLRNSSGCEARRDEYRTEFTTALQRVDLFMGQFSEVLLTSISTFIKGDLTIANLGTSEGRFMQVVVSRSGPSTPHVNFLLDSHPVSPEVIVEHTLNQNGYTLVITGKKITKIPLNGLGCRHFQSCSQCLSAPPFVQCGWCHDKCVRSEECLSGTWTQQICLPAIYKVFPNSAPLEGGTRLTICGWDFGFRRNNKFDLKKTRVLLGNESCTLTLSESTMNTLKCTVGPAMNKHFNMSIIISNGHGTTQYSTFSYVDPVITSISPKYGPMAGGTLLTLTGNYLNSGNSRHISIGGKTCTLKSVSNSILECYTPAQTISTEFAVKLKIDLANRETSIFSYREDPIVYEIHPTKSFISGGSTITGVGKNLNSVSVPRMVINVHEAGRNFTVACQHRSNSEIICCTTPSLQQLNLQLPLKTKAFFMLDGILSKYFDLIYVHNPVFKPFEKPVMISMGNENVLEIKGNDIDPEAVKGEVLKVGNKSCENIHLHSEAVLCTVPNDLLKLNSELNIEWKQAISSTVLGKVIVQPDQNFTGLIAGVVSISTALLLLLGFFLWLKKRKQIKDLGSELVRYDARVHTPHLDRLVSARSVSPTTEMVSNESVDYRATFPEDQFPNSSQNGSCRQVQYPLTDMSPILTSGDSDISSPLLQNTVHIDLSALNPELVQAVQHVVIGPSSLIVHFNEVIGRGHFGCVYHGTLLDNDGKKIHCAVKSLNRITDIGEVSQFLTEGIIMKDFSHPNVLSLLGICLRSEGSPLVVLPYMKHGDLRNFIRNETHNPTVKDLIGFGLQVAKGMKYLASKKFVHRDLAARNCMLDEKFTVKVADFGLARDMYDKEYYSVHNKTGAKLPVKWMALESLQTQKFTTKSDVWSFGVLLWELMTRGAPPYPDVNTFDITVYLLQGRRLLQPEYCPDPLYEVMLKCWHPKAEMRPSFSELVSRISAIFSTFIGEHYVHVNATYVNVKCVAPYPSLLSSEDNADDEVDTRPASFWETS

Mer kinase = molecular target: T2, Mer kinase (Homo sapiens, UniProt Q12866); experiment: Mer kinase inhibition assay (TK-Sub-Biotin / cryptate detection); type: biochemical; conditions: means from three independent experiments
T2 construct: purchased Invitrogen (Shanghai, China)
T2 sequence (Q12866 21-999): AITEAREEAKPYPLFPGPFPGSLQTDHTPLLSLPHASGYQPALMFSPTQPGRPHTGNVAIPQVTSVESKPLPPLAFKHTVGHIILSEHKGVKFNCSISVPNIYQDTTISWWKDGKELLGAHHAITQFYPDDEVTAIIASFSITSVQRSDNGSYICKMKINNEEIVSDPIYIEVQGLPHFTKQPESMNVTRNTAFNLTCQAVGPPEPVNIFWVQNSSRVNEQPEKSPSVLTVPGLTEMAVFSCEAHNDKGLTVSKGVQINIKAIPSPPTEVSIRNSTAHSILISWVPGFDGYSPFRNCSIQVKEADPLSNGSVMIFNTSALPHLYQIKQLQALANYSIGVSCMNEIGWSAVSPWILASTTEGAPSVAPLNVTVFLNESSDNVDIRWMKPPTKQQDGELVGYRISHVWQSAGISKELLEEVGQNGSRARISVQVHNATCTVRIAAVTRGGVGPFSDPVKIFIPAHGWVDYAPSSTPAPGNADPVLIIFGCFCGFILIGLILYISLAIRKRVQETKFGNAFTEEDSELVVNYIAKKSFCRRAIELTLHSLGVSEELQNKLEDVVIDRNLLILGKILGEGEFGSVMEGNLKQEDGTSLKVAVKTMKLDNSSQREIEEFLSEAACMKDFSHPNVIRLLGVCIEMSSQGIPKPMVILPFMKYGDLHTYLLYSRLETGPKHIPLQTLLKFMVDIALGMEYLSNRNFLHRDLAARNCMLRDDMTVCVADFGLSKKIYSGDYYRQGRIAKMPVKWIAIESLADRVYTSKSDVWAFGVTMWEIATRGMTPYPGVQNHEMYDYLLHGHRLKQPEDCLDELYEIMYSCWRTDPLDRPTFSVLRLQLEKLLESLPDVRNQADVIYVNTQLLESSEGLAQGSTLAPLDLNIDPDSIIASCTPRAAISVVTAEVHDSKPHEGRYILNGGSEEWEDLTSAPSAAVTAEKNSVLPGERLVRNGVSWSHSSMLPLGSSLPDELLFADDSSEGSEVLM

SMILES | IC50 (c-Met kinase) [nM] | IC50 (Mer kinase) [nM]
CN1CCC(Oc2ccc(Nc3nccc(Oc4ccc(NC(=O)C5(C(=O)Nc6ccc(F)cc6)CC5)cc4)n3)cc2)CC1 [compound 13a, N-(4-fluorophenyl)-N-(4-((2-((4-((1-methylpiperidin-4-yl)oxy)phenyl)amino)pyrimidin-4-yl)oxy)phenyl)cyclopropane-1,1-dicarboxamide] | 63.3 ± 9.1 | 21.7 ± 5.8
O=C(Nc1ccc(F)cc1)C1(C(=O)Nc2ccc(Oc3ccnc(Nc4cn[nH]c4)n3)cc2)CC1 [compound 13c, N-(4-((2-((1H-pyrazol-4-yl)amino)pyrimidin-4-yl)oxy)phenyl)-N-(4-fluorophenyl)cyclopropane-1,1-dicarboxamide] | 48.9 ± 6.4 | 110 ± 15.7
O=C(Nc1ccc(F)cc1)C1(C(=O)Nc2ccc(Oc3ccnc(Nc4cc(F)cc(F)c4)n3)cc2)CC1 [compound 13d, N-(4-((2-((3,5-difluorophenyl)amino)pyrimidin-4-yl)oxy)phenyl)-N-(4-fluorophenyl)cyclopropane-1,1-dicarboxamide] | 728 ± 131 | 640 ± 82.2
O=C(NC1CCCNC1)c1cccc(Nc2nccc(Oc3ccc(NC(=O)C4(C(=O)Nc5ccc(F)cc5)CC4)cc3)n2)c1 (centres unmarked) [compound 13f, N-(4-fluorophenyl)-N-(4-((2-((3-(piperidin-3-ylcarbamoyl)phenyl)amino)pyrimidin-4-yl)oxy)phenyl)cyclopropane-1,1-dicarboxamide] | > 1000 | > 1000

Further lines, results first:

IC50 (c-Met kinase) [nM] | IC50 (Mer kinase) [nM] | SMILES
> 1000 | > 1000 | O=C(NC1CCCNC1)c1ccc(Nc2nccc(Oc3ccc(NC(=O)C4(C(=O)Nc5ccc(F)cc5)CC4)cc3)n2)cc1 (centres unmarked) [compound 13g, N-(4-fluorophenyl)-N-(4-((2-((4-(piperidin-3-ylcarbamoyl)phenyl)amino)pyrimidin-4-yl)oxy)phenyl)cyclopropane-1,1-dicarboxamide]
41.6 ± 8.5 | 72 ± 8.9 | CN1CCN(C(=O)c2ccc(Nc3nccc(Oc4ccc(NC(=O)C5(C(=O)Nc6ccc(F)cc6)CC5)cc4)n3)cc2)CC1 [compound 13h, N-(4-fluorophenyl)-N-(4-((2-((4-(4-methylpiperazine-1-carbonyl)phenyl)amino)pyrimidin-4-yl)oxy)phenyl)cyclopropane-1,1-dicarboxamide]
88.6 ± 13.9 | 95.3 ± 20.1 | CCN(CC)CCNCC(=O)Nc1ccc(Nc2nccc(Oc3ccc(NC(=O)C4(C(=O)Nc5ccc(F)cc5)CC4)cc3)n2)cc1 [compound 13i, N-(4-((2-((4-(2-((2-(diethylamino)ethyl)amino)acetamido)phenyl)amino)pyrimidin-4-yl)oxy)phenyl)-N-(4-fluorophenyl)cyclopropane-1,1-dicarboxamide]
233 ± 25.4 | 26.2 ± 7.1 | Cc1c(C(=O)Nc2ccc(Oc3ccnc(Nc4ccc(OC5CCN(C)CC5)cc4)n3)cc2)c(=O)n(-c2ccccc2)n1C [compound 17a, 1,5-dimethyl-N-(4-((2-((4-((1-methylpiperidin-4-yl)oxy)phenyl)amino)pyrimidin-4-yl)oxy)phenyl)-3-oxo-2-phenyl-2,3-dihydro-1H-pyrazole-4-carboxamide]
101 ± 18.5 | 12.1 ± 1.3 | COCCNc1cccc(Nc2nccc(Oc3ccc(NC(=O)c4c(C)n(C)n(-c5ccccc5)c4=O)cc3)n2)c1 [compound 17b, N-(4-((2-((3-((2-methoxyethyl)amino)phenyl)amino)pyrimidin-4-yl)oxy)phenyl)-1,5-dimethyl-3-oxo-2-phenyl-2,3-dihydro-1H-pyrazole-4-carboxamide]
137 ± 34.3 | 84.1 ± 13.9 | Cc1c(C(=O)Nc2ccc(Oc3ccnc(Nc4ccc(C(=O)N5CCN(C)CC5)cc4)n3)cc2)c(=O)n(-c2ccccc2)n1C [compound 17d, 1,5-dimethyl-N-(4-((2-((4-(4-methylpiperazine-1-carbonyl)phenyl)amino)pyrimidin-4-yl)oxy)phenyl)-3-oxo-2-phenyl-2,3-dihydro-1H-pyrazole-4-carboxamide]
